Usually melting point stands for the temperature, or range, at which the solid turns liquid.

`COc1cc2c3cc(OC)c(OC)cc3n(S(=O)(=O)c3ccccc3)c2cc1OC` came in with a melting point of 212 to 213 °C.
Compound `CO[C@@H]1CN(Cc2ccccc2)CC[C@H]1NC(=O)c1cccc(C(F)(F)F)c1` (relative stereo) registered a melting point of 135 °C.
The result for `ClC(=NNc1c(Cl)cc(Cl)cc1Cl)c1ccc(Cl)cc1` reads 123 to 124 °C; that for `CCc1ccc(S(=O)(=O)c2ccc(C)nc2Nc2ccc(OC)cc2Cl)cc1`, 110 to 112 °C; that for `O=[N+]([O-])c1cn2c(n1)O[C@@H](COc1ccc(N3CCC(CCc4ccc(OC(F)(F)F)cc4)CC3)cc1)C2`, 209 to 212 °C.
The result for `Cc1ccc([N+](=O)[O-])c(C(=O)Nc2nnn[nH]2)c1` reads 278 to 279 °C; that for `Nc1nc2ccc(S(=O)(=O)n3c(CCC(=O)O)cc4cc(Cl)ccc43)cc2o1`, 242 to 249 °C.
Regarding `CN(C)Cc1cc(C(=O)c2sccc2Cl)cc(C(C)(C)C)c1O`, the melting point fell in the range of 131 to 132 °C.
The result for `COC(=O)NC=Cc1ccc(OCC2CO2)c(OC)c1` (stereo unspecified) reads 122 to 123 °C; that for `COc1ccc(-c2coc3c(C)c(OCC4CO4)ccc3c2=O)cc1OC` (stereo unspecified), 214 °C.
The result for `Clc1ccc2c(c1)C(c1ccsc1)=NCC1COCCN21` (stereo unspecified) reads 207 to 212 °C; that for `O=C(CCCN1CCC(c2ccc(Cl)cc2)CC1)c1ccc2c(c1)CCN(Cc1ccccc1)CC2`, 99 to 100 °C; that for `OC(c1cc2ccccc2s1)C1CCN(CCc2ccccc2)CC1` (stereo unspecified), 178 °C.
To `CCCSc1nc[nH]n1` belongs 53 to 56 °C; to `O=C1c2ccc(Cl)cc2C(=O)N1c1ccc(Cl)cc1OC(F)(F)F`, 156 to 157 °C.
Compound `C=CCOC(=O)C1=C(C)NC(C)=C(C(=O)OCC=C)C1c1ccc(Br)cc1` displayed a melting point of 130 to 131 °C.
To `Cc1ncc(CN2CC=C(c3ccc(F)cc3)CC2)c(N)n1` belongs 176 to 178 °C.
The result for `CN(C(=O)c1ccc(N2CCOCC2)cc1)[C@@H]1CCN(C(=O)C2CCN(C(=O)C3(O)CC3)CC2)C[C@H]1c1ccc(Cl)c(Cl)c1` reads 151 to 153 °C.
To `Cc1cn(C(C)C(=O)N(C)C)nc1-c1ccc(Cl)s1` (stereo unspecified) belongs 112 to 114 °C.
In turn, `CCOC(=O)CC(O)c1ccc([N+](=O)[O-])c(OC)c1` (stereo unspecified) came in with a melting point of 54 to 56 °C.
To `COCN(c1cccc2cc(C(N)=O)n(COC)c12)S(=O)(=O)c1cccs1` belongs 203 to 204 °C.
The compound `Cc1c(C(=O)Nc2ccc(N3CCN(C4CCOCC4)CC3)c(C#N)c2)cnn1-c1ccc(Cl)c(Cl)c1` returned a melting point of 242 °C.
To `Cc1cnc(N2C(=O)C(O)=C(C(=O)c3ccc(C(C)C)cc3)C2c2ccc(OC(F)(F)F)cc2)cn1` (stereo unspecified) belongs 266 to 268 °C; to `CCCC(=O)N[C@H]1CC[C@H](CCN2CCN(c3nccc4c3OCC4)CC2)CC1`, 183 °C.
`CCOCc1nc2c(N)nc(C)c(C)c2n1NCc1ccccc1`: the melting point lay in the range of 149 to 151 °C.
For `O=c1[nH]c(=O)n(C2CC(OCc3ccccc3)C(COC(c3ccccc3)(c3ccccc3)c3ccccc3)O2)cc1F` (stereo unspecified), the melting point is 138 to 139 °C.
The result for `CCOc1ccc(C2=NN(c3ccc(C4=NNC(=O)CC4C)cc3)C(=O)C3CC=CCC23)cc1OCC` (stereo unspecified) reads 164 to 165 °C.
To `COc1ccc2ccc(N3C(=O)c4ccccc4C3CC(=O)CCC(C)C)nc2n1` (stereo unspecified) belongs 150 °C.
The result for `CC(O)(C#CCCO)c1ccc(-c2ccc(Cl)cc2)cc1` (stereo unspecified) reads 105 °C.
In turn, `Nc1nc2nc(NCCCN3CCOCC3)ncc2cc1-c1c(Cl)cccc1Cl` showed a melting point of 224 to 230 °C.
The result for `CCc1cccc(C)c1NCc1nccc2c1nc(C)n2C` reads 141 to 142 °C; that for `COc1nc(OC)nc(OC(=O)c2cccc3cc(O)ccc23)n1`, 166 to 168 °C; that for `CCOC(=O)c1nc(Nc2ccccc2)sc1-c1ccncc1`, 167 to 169 °C.
The result for `Cc1ccc(-c2nccc3c(C#N)cccc23)cc1` reads 132 °C.
To `Cc1ccc(C2c3c(C)c(N4CCN(c5cc(C)cc(C)c5)CC4)c(C)c(C)c3OC2(C)C)cc1` (stereo unspecified) belongs 147 to 149 °C; to `CCOC(=O)C1(C(=O)N(C)c2cccc3cc(-c4nccs4)[nH]c23)CCC1`, 197 °C.
`C[C@]1(COc2ccc(N3CCC(Cc4cccc(OC(F)(F)F)c4)CC3)cc2)Cn2cc([N+](=O)[O-])nc2O1` came in with a melting point of 187 to 190 °C.
For `CC(=O)N1C(=O)N(c2ccc(C#N)c(C(F)(F)F)c2)C(=O)C1(C)C`, the melting point is 129 to 130 °C.
The result for `CC(C)NCC1(O)COc2ccc([N+](=O)[O-])cc2OC1` (stereo unspecified) reads 97.5 to 99 °C; that for `COc1ccc(C2Sc3c(Cl)cccc3N(CCN(C)C)C(=O)C2O)cc1` (stereo unspecified), 143 to 144 °C; that for `CCCc1cccc2[nH]c(C(=O)OCC)cc(=O)c12`, 153 to 154 °C.
The result for `Cc1cccc(Nc2cc(Nc3ccc(OCC(=O)N(C)C)c(Cl)c3)ncn2)c1` reads 190 to 193 °C.
The result for `O=C(c1ccco1)N1Cc2c(-c3noc(C4CC4)n3)ncn2-c2ccccc21` reads 190 to 191 °C; that for `NC(=O)N(O)CC(=O)N(Cc1cccs1)c1ccc(Br)cc1`, 76 to 79.5 °C; that for `N=C(N)c1cccc(Cc2c[nH]cn2)c1O`, 249 °C.
Compound `N#Cc1ccn2ccccc12` yielded a melting point of 53 to 54 °C.
`CCOP(=O)(CNC(=O)OC(c1ccccc1)c1cc(C(C)(C)C)c(O)c(C(C)(C)C)c1)OCC` (stereo unspecified) registered a melting point of 196 to 197 °C.
To `CC(O)=C(C#N)C(=O)N1CCN(c2ccc(NC(=O)c3cnn(-c4ccc(F)cc4)c3C)cc2C#N)CC1` belongs 210 °C; to `S=C1CN=C(c2ccccc2Cl)c2cc(CCc3ccccc3)sc2N1`, 175 to 176 °C; to `COc1ccc2c(c1OCc1ccccc1)CCCC2=O`, 64 °C.
The result for `O=C(O)C(=O)c1cn(Cc2ccccc2)c2ccc(-c3ccc(OC(F)(F)F)cc3)cc12` reads 169 to 171 °C; that for `ON=C1CCc2c([nH]c3ccccc23)C1`, 196 °C.
The result for `COc1ccc2ccc(N3C(=O)c4ccccc4C3OC(=O)N3CCN(C)CC3)nc2n1` (stereo unspecified) reads 218 °C.
For `COc1cc(C(=O)N2CCC(CCN3CCC(C(=O)c4nc5ccccc5n4Cc4ccccn4)CC3)(c3ccc(Cl)c(Cl)c3)C2)cc(OC)c1OC` (stereo unspecified), the melting point lay in the range of 110 to 115 °C.
`COC1(C)CCc2c(C)c(OC(C)=O)c(C)c(C)c2O1` (stereo unspecified): the melting point is 71 to 72.5 °C.
The result for `CCOC(=O)C(C(=O)OCC)C(NC(C)=O)[PH](=O)O` (stereo unspecified) reads 113 to 114 °C; that for `CCCCCCS(=O)(=O)c1c(O)cc(C)oc1=O`, 65 to 66 °C; that for `CC1(C)CC(NC(=O)c2cc(Cl)cc(NC=O)c2O)CC(C)(C)C1`, 214 to 215 °C.
To `COc1ccc2c(c1)C(C(=O)N(Cc1ccc(CO)cc1)c1ccc(C(C)C)cc1)CCC2` (stereo unspecified) belongs 143 °C.
Consider `CC1(C)OC(=O)Nc2ccc(-c3ccc(F)c(Cl)c3)cc21`, for which the melting point was in the range of 211 to 212 °C.
`NC(=O)Cn1ccc(-c2ccc(Oc3ccc(F)cc3)cc2)n1`: the melting point turned out to be 145 °C.
The result for `FCc1cccc(C#CCCn2ncc(-c3ccc(F)cc3)n2)n1` reads 84 to 86 °C; that for `O=C(Nc1ccc([N+](=O)[O-])cc1)C(=O)N1CCC(Cc2ccc(F)cc2)CC1`, 157 to 159 °C.
To `Cc1nccn1Cc1ccccc1` belongs 51 to 53 °C.
The result for `CCc1csc(-n2cc(C)cc2-c2ccc(S(N)(=O)=O)cc2)c1` reads 139 to 141 °C.
Compound `Cc1ccc(Oc2ccc(OC(=O)N3CCC(C)CC3)cc2)cc1` came in with a melting point of 79 to 81 °C.
To `CCCc1nc2c(N)nc3cccnc3c2n1CC1(O)CCCCC1` belongs 209 to 211 °C; to `Cc1ccc(C)c(OCc2ccccc2C(=O)c2cc(C)no2)c1`, 106 to 108 °C; to `O=C(O)CC1CCc2c(c3ccccc3n2Cc2ccccc2)C1` (stereo unspecified), 156 to 158 °C.
The result for `CC(=O)CCCC(=O)NC(CC(=O)C(=O)C(C)(Cc1c[nH]c2ccccc12)NC(=O)OC1C2CC3CC(C2)CC1C3)c1ccccc1` (stereo unspecified) reads 69 to 71 °C.
To `COC(=O)NC1(c2ccc(C(C)C)cc2OC)C(=O)c2ccccc2C1=O` belongs 153 to 155 °C; to `O=C(O)c1sc(Oc2ccc3c(c2)OCO3)c2c1CCc1cnoc1-2`, 226 to 228 °C.
In turn, `O=C1C2=C(NC(=O)C3(N2)SCCS3)c2ccccc21` returned a melting point of more than 300 °C.
To `COc1cc(Nc2nccc(-c3ccc(N4CCCC(CO)C4)nc3)n2)cc(OC)c1OC` (stereo unspecified) belongs 183 to 184 °C; to `COc1cc2ncc(C#N)c(Nc3cc(C)c(C)cc3N)c2cc1OC`, 260 to 262 °C.
To `COc1ccc(C(=O)Nc2ccccc2)cc1NS(=O)(=O)c1ccc(C)cc1` belongs 200 to 202 °C; to `O=C1N=C(N2CCOCC2)SC1=Cc1cccc(-c2cc(F)c(O)c(C34CC5CC(CC(C5)C3)C4)c2)c1`, 293 to 295 °C.
To `O=C(Nc1ccc(O)cn1)C(CC1CCCC1)c1ccc(Cl)c(Cl)c1` (stereo unspecified) belongs 79 to 81 °C.
As to `CC(=O)Cc1cccc(S(N)(=O)=O)c1`, the melting point fell in the range of 155 to 157 °C.
To `[N-]=[N+]=NC(c1ccccc1)C(O)c1ccccc1` (stereo unspecified) belongs 59 to 60 °C.
`c1ccc(-c2coc3cc4c(cc23)CCC4)cc1` registered a melting point of 43 to 46 °C.
To `O=C(O)CCC1(CCC(=O)O)CCC(=O)N1` belongs 162 to 164 °C.
`CC/C(=C(\c1ccc(/C=C/C(=O)O)cc1)c1ccc(OP(=O)(O)O)cc1)c1ccccc1` showed a melting point of 181 to 183 °C.
The result for `NCc1c(-c2ccc(Oc3ccccc3)cc2)c2c(N)ncnc2n1C1CCCC1` reads 196 to 198 °C.
`CCOC(=O)c1cc(-c2ccccc2)n(-c2cccc(Cl)c2)c1C` gave a melting point of 99.6 to 100 °C.
On to `N#CC(=O)c1ccccc1CCl`, for which the melting point is 54.5 to 56.5 °C.

The record behind these values is a melting point compilation (Tetko et al.; mined from patent text by program, amines drawn as free bases though some values may be those of a salt).
